In paper PMC5011342, “A high throughput drug screening assay to identify compounds that promote oligodendrocyte differentiation using acutely dissociated and purified oligodendrocyte precursor cells” (BMC Research Notes, 2016):
Where a name gives a salt, the structure may show the parent alone. Read-outs that look alike come from different tables or passages of the source.

Key:
expanded OPCs = test: cells; conditions: for viability at 0.1 µM / viability at 1 µM / viability at 10 µM: Rattus norvegicus, 72 h; for 0.1 µM (% DMSO) / 1 µM (% DMSO) / 10 µM (% DMSO): alamarBlue viability of expanded OPCs, relative to DMSO control; for 0.1 µM (% DMSO): compound at 0.1 µM; for 1 µM (% DMSO): compound at 1 µM; for 10 µM (% DMSO): compound at 10 µM
How it was run: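 Expanded OPCs seeded at 10,000 cells/well in differentiation media, then exposed to NCC library compounds at 10, 1 and 0.1 µM (quadruplicate, 0.1% DMSO) for three days. Viability read as alamarBlue fluorescence (560/590 nm) after 4 h at 37 °C; tunicamycin 5 ng/ml served as toxicity control.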

[1] = test system: acutely dissociated and purified rat OPCs; test: Acute OL differentiation assay (MBP expression/cell, immunofluorescent image quantification); type: cell-based; conditions: Rattus norvegicus, sheet "All OLga data"
How it was run: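 Oligodendrocyte precursor cells were enriched from P6-P7 Sprague–Dawley rat brains by immunopanning (RAN-2 and GalC depletion, O4 selection), plated at 5000 cells/well in serum-free, mitogen-free differentiation media on PDL/laminin 96-well view plates, centrifuged at 200×g, and pre-incubated 1–2 h before test compounds were added in quadruplicate. On DIV4, cells were fixed, stained for MBP and DAPI, imaged automatically, and MBP expression per cell was quantified.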

[2] = read-out: 0.1 µM (% DMSO), alamarBlue viability, NCC library compound at 0.1 µM, sheet "All Tox data"
[3] = read-out: 1 µM (% DMSO), alamarBlue viability, NCC library compound at 1 µM, sheet "All Tox data"
[4] = read-out: 10 µM (% DMSO), alamarBlue viability, NCC library compound at 10 µM, sheet "All Tox data"
[5] = test compound at 2 uM, NCC library screen, relative to quetiapine, read-out: 2 uM (% Quet)
[6] = test compound at 2 uM, MBP expression relative to quetiapine, NCC library screen, read-out: 2 uM (% Quet)
[7] = test compound at 10 uM, MBP expression relative to quetiapine, NCC library screen, read-out: 10 uM (% Quet)
[8] = 0.4 uM test compound, relative to quetiapine, read-out: OL differentiation, 0.4 uM (% Quet)
[9] = 2 uM test compound, relative to quetiapine, read-out: OL differentiation, 2 uM (% Quet)
[10] = test compound at 10 uM, NCC library screen, relative to quetiapine, read-out: 10 uM (% Quet)
[11] = read-out: 0.1 µM (% DMSO), alamarBlue viability of expanded OPCs, compound at 0.1 µM, sheet All Tox data
[12] = read-out: 1 µM (% DMSO), alamarBlue viability of expanded OPCs, compound at 1 µM, sheet All Tox data
[13] = read-out: 10 µM (% DMSO), alamarBlue viability of expanded OPCs, compound at 10 µM, sheet All Tox data
[14] = 10 uM test compound, relative to quetiapine, read-out: OL differentiation, 10 uM (% Quet)

| SMILES | viability at 0.1 µM (expanded OPCs; [2]) [%] | viability at 1 µM (expanded OPCs; [3]) [%] | viability at 10 µM (expanded OPCs; [4]) [%] | activation at 2 µM [1, 5] [%] | activation at 2 µM [1, 9] [%] | viability at 0.1 µM (expanded OPCs; [11]) [%] | viability at 1 µM (expanded OPCs; [12]) [%] | viability at 10 µM (expanded OPCs; [13]) [%] | also measured |
| --- | --- | --- | --- | --- | --- | --- | --- | --- | --- |
| CN1CCC(=C2c3ccccc3CC(=O)c3sccc32)CC1 [Ketotifen] | 85.1 | 72.7 | 36.9 | 0.04 | – | – | – | – | activation at 0.4 µM ([1]; test compound at 0.4 uM, NCC library screen, relative to quetiapine, read-out: 0.4 uM (% Quet)): -11.2% |
| O=S(=O)(O)CCS [Mesna] | – | – | – | – | – | – | – | – | 0.1 µM (% DMSO) (expanded OPCs): 92.5 % DMSO; 1 µM (% DMSO) (expanded OPCs): 91.3 % DMSO; 10 µM (% DMSO) (expanded OPCs): 100.9 % DMSO; activation at 2 µM [1, 6]: -46%; activation at 10 µM [1, 7]: -38.6% |
| CN(C)CCC(c1ccc(Br)cc1)c1ccccn1 (stereo not drawn) [Brompheniramine] | 95.3 | 84.4 | 39.2 | – | 0.5 | – | – | – | activation at 0.4 µM [1, 8]: -2% |
| C=CCN1CC[C@]23c4c5ccc(O)c4O[C@H]2C(=O)CC[C@@]3(O)[C@H]1C5 [Naloxone] | 94.2 | 90.1 | 85.6 | -2.8 | – | – | – | – | activation at 10 µM [1, 10]: -10.8% |
| O=C1C(CC[S+]([O-])c2ccccc2)C(=O)N(c2ccccc2)N1c1ccccc1 (stereo not drawn) [Sulfinpyrazone] | 88.8 | 92.9 | 88.2 | -3.8 | – | – | – | – | activation at 10 µM [1, 10]: -6.8% |
| CN(CCCN1c2ccccc2CCc2ccccc21)CC(=O)c1ccc(Cl)cc1 [Lofepramine] | – | – | – | – | -3.7 | 97.9 | 79.6 | 47.1 | activation at 0.4 µM [1, 8]: 1.3% |
| Cc1ccc(-c2nc3ccc(C)cn3c2CC(=O)N(C)C)cc1 [Zolpidem] | – | – | – | – | -14 | 86.9 | 90.8 | 93.5 | activation at 10 µM [1, 14]: -2.7% |
| C[C@H]1COc2c(C3(N)CC3)c(F)cc3c(=O)c(C(=O)O)cn1c23 [Pazufloxacin] | – | – | – | – | 1.9 | 95.3 | 98 | 104 | activation at 10 µM [1, 14]: -11% |
| CC[C@@H]1C=CC=CC[C@H](C)[C@@H](O)[C@@H](C)C(=O)[C@H](C)[C@@H](O)[C@H](C)C(=O)[C@H](C)[C@@H](O)[C@H](C)C=CC(=O)O[C@H]2[C@@H](C)[C@@H](CC1)O[C@@]1(CC[C@@H](C)[C@@H](C[C@H](C)O)O1)[C@@H]2C [Oligomycin C] | – | – | – | – | -33.8 | 86.9 | 87 | 68.4 | activation at 10 µM [1, 14]: -128% |
| CC(=O)[C@@]1(O)CC[C@H]2[C@@H]3C[C@H](C)C4=CC(=O)C=C[C@]4(C)[C@@]3(F)[C@@H](O)C[C@@]21C [Fluorometholone] | – | – | – | – | – | – | – | – | 0.1 µM (% DMSO) (expanded OPCs): 112.5 % DMSO; 1 µM (% DMSO) (expanded OPCs): 98.3 % DMSO; 10 µM (% DMSO) (expanded OPCs): 86.2 % DMSO; activation at 2 µM [1, 6]: 9.3%; activation at 10 µM [1, 7]: -24.3% |
| CCCCC1=NC2(CCCC2)C(=O)N1Cc1ccc(-c2ccccc2-c2nnn[nH]2)cc1 [Irbesartan] | 88.9 | 92.8 | 89.7 | – | 0.6 | – | – | – | activation at 10 µM [1, 14]: -16.7% |
| Nc1ncnc2c1ncn2[C@@H]1O[C@H](CO)[C@@H](O)[C@H]1O [Adenosine] | 88.5 | 81.3 | 80.5 | 3.3 | – | – | – | – | activation at 10 µM [1, 10]: -9.9% |
| CN(CCOc1ccc(CC2SC(=O)NC2=O)cc1)c1ccccn1 (stereo not drawn) [Rosiglitazone maleate] | – | – | – | – | 7.9 | 95.3 | 103 | 158 | – |
| C#C[C@]1(OC(C)=O)CC[C@H]2[C@@H]3CCC4=CC(=O)CC[C@@H]4[C@H]3CC[C@@]21C [Norethisterone acetate] | 103 | 93.1 | 101 | -15 | – | – | – | – | activation at 10 µM [1, 10]: -14.3% |
